In US20020137929A1, “1 - (3-heterocyclylphenyl) isothiourea, -isourea, -guanidine and -amidine herbicidal agents” (Intellectual Property Department, BASF Aktiengesellschaft, priority 1998, published 2002):

How the values were obtained:
[1] = system: GLXMAW (Soybean, Williams); assay: Postemergence herbicidal evaluation; type: in vivo, Glycine max, (L.) Merr. cv Williams; conditions: postemergence
How it was run: (§1)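 Visual 0-9 injury score (stand, vigor, malformation, size, chlorosis, appearance vs untreated) taken four to five weeks post-spray, averaged across repeat tests. Test plants about two weeks old; foliar spray of acetone/water (1:1) with 0.5% surfactant delivering ~0.0156-0.500 kg active/ha.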

CYPIR (Rice Flatsedge) = assay: Preemergence weed control under flooded paddy conditions; type: in vivo, Cyperus iria; conditions: rated 3-4 weeks after treatment
How it was run: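 Seeds or propagules sown in silt loam kept flooded 1.5-3 cm; compounds in 50/50 acetone/water pipetted into flood water at about 0.0313 to 0.500 kg/ha. Greenhouse; visual 0-9 rating versus untreated control 3-4 weeks after treatment.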

ZEAMX (Corn, Field) = assay: Postemergence herbicidal evaluation; type: in vivo, Zea mays; conditions: postemergence
How it was run: as §1

SETVI (Foxtail, Green) [2] = assay: Postemergence herbicidal evaluation; type: in vivo, Setaria viridis; conditions: postemergence
How it was run: as §1

[3] = system: CHEAL (Lambsquarters, Common); assay: Postemergence herbicidal evaluation; type: in vivo, Chenopodium album; conditions: postemergence
How it was run: as §1

GALAP (Galium) = assay: Preemergence herbicidal evaluation; type: in vivo, Galium aparine; conditions: rated 4-5 weeks after treatment, rating scale 0-9
How it was run: (§2)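 In this greenhouse assay, monocot and dicot seeds are planted in soil and treated prior to emergence with an aqueous acetone spray (about 0.0156-0.500 kg/ha). Plants are assessed visually against control on a 0-9 scale after 4-5 weeks.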

[4] = system: TRZAWR (Wheat, Winter, cv Riband); assay: Postemergence herbicidal evaluation; type: in vivo, Triticum aestivum; conditions: postemergence
How it was run: as §1

AMBEL (Ragweed, Common) = assay: Preemergence herbicidal evaluation; type: in vivo, Ambrosia artemisifolia; conditions: rated 4-5 weeks after treatment, rating scale 0-9
How it was run: as §2

ORYSAT (Rice, Tebonnet) = assay: Postemergence herbicidal evaluation; type: in vivo, Oryza sativa, (L.) Tebonnet; conditions: postemergence
How it was run: as §1

SETVI (Foxtail, Green) [5] = assay: Preemergence herbicidal evaluation; type: in vivo, Setaria viridis; conditions: rated 4-5 weeks after treatment, rating scale 0-9
How it was run: as §2

ABUTH (Velvetleaf) = assay: Postemergence herbicidal evaluation; type: in vivo, Abutilon theophrasti; conditions: postemergence
How it was run: as §1

| SMILES | Herbicidal rating GLXMAW ([1]; rate 0.0156 kg/ha) | Herbicidal rating GLXMAW ([1]; rate 0.0313 kg/ha) | Herbicidal rating GLXMAW ([1]; rate 0.0625 kg/ha) | herbicidal effect rating, CYPIR (CYPIR (Rice Flatsedge); 0.0313 kg/ha) | herbicidal effect rating, CYPIR (CYPIR (Rice Flatsedge); 0.0625 kg/ha) | herbicidal effect rating, CYPIR (CYPIR (Rice Flatsedge); 0.1250 kg/ha) | herbicidal effect rating, CYPIR (CYPIR (Rice Flatsedge); 0.2500 kg/ha) | Herbicidal rating ZEAMX (ZEAMX (Corn, Field); rate 0.0156 kg/ha) | Herbicidal rating ZEAMX (ZEAMX (Corn, Field); rate 0.0313 kg/ha) | Herbicidal rating ZEAMX (ZEAMX (Corn, Field); rate 0.0625 kg/ha) | Herbicidal rating SETVI (SETVI (Foxtail, Green) [2]; rate 0.0156 kg/ha) | Herbicidal rating SETVI (SETVI (Foxtail, Green) [2]; rate 0.0313 kg/ha) | Herbicidal rating SETVI (SETVI (Foxtail, Green) [2]; rate 0.0625 kg/ha) | Herbicidal rating CHEAL ([3]; rate 0.0156 kg/ha) | Herbicidal rating CHEAL ([3]; rate 0.0313 kg/ha) | Herbicidal rating CHEAL ([3]; rate 0.0625 kg/ha) | Preemergence herbicidal rating GALAP (GALAP (Galium); rate 0.0313 kg/ha) | Preemergence herbicidal rating GALAP (GALAP (Galium); rate 0.0625 kg/ha) | Preemergence herbicidal rating GALAP (GALAP (Galium); rate 0.1250 kg/ha) | Preemergence herbicidal rating GALAP (GALAP (Galium); rate 0.2500 kg/ha) | further results |
| --- | --- | --- | --- | --- | --- | --- | --- | --- | --- | --- | --- | --- | --- | --- | --- | --- | --- | --- | --- | --- | --- |
| CN(C)c1ccc(CN2C(=O)CSC2=Nc2cc(-n3c(=O)cc(C(F)(F)F)n(C)c3=O)c(F)cc2Cl)cc1 [Compound 138, 3-{4-Chloro-5-{{3-[p-(dimethylamino)benzyl]-4-oxo-2-thiazolidinylidene}amino}-2-fluorophenyl}-1-methyl-6-(trifluoromethyl)-2,4(1H,3H)-pyrimidinedione] | 5.0 | 6.0 | 6.5 | 2.0 | 2.0 | 3.0 | 5.0 | 4.0 | 4.5 | 5.0 | 3.0 | 4.0 | 9.0 | 9.0 | 9.0 | 9.0 | 0.0 | 0.0 | 0.0 | 4.0 | Preemergence herbicidal rating GALAP (GALAP (Galium); rate 0.0156 kg/ha): 0.0; Herbicidal rating TRZAWR ([4]; rate 0.0156 kg/ha): 2.5; Herbicidal rating TRZAWR ([4]; rate 0.0313 kg/ha): 3.0; Herbicidal rating TRZAWR ([4]; rate 0.0625 kg/ha): 3.0; Preemergence herbicidal rating AMBEL (AMBEL (Ragweed, Common); rate 0.0156 kg/ha): 0.0; Preemergence herbicidal rating AMBEL (AMBEL (Ragweed, Common); rate 0.0313 kg/ha): 0.0; Preemergence herbicidal rating AMBEL (AMBEL (Ragweed, Common); rate 0.0625 kg/ha): 0.0; Preemergence herbicidal rating AMBEL (AMBEL (Ragweed, Common); rate 0.1250 kg/ha): 1.0; Preemergence herbicidal rating AMBEL (AMBEL (Ragweed, Common); rate 0.2500 kg/ha): 2.0; Herbicidal rating ORYSAT (ORYSAT (Rice, Tebonnet); rate 0.0156 kg/ha): 1.5; Herbicidal rating ORYSAT (ORYSAT (Rice, Tebonnet); rate 0.0313 kg/ha): 2.5; Herbicidal rating ORYSAT (ORYSAT (Rice, Tebonnet); rate 0.0625 kg/ha): 3.0; Preemergence herbicidal rating SETVI (SETVI (Foxtail, Green) [5]; rate 0.0156 kg/ha): 0.0; Preemergence herbicidal rating SETVI (SETVI (Foxtail, Green) [5]; rate 0.0313 kg/ha): 0.0; Preemergence herbicidal rating SETVI (SETVI (Foxtail, Green) [5]; rate 0.0625 kg/ha): 0.0; Preemergence herbicidal rating SETVI (SETVI (Foxtail, Green) [5]; rate 0.1250 kg/ha): 3.0; Preemergence herbicidal rating SETVI (SETVI (Foxtail, Green) [5]; rate 0.2500 kg/ha): 2.0; Herbicidal rating ABUTH (ABUTH (Velvetleaf); rate 0.0156 kg/ha): 9.0; Herbicidal rating ABUTH (ABUTH (Velvetleaf); rate 0.0313 kg/ha): 9.0; Herbicidal rating ABUTH (ABUTH (Velvetleaf); rate 0.0625 kg/ha): 9.0 |
| C=C1SC(=Nc2cc(-n3c(=O)cc(C(F)(F)F)n(C)c3=O)c(F)cc2Cl)N(CC(=O)OCC)C1=O [Compound 154] | 5.5 | 6.0 | 7.5 | 2.0 | 3.0 | 4.0 | 6.0 | 4.0 | 4.0 | 5.0 | 0.0 | 0.0 | 5.0 | 9.0 | 9.0 | 9.0 | 0.0 | 4.0 | 9.0 | 9.0 | Preemergence herbicidal rating GALAP (GALAP (Galium); rate 0.0156 kg/ha): 0.0; Herbicidal rating TRZAWR ([4]; rate 0.0156 kg/ha): 3.5; Herbicidal rating TRZAWR ([4]; rate 0.0313 kg/ha): 3.5; Herbicidal rating TRZAWR ([4]; rate 0.0625 kg/ha): 4.0; Preemergence herbicidal rating AMBEL (AMBEL (Ragweed, Common); rate 0.0156 kg/ha): 3.0; Preemergence herbicidal rating AMBEL (AMBEL (Ragweed, Common); rate 0.0313 kg/ha): 5.0; Preemergence herbicidal rating AMBEL (AMBEL (Ragweed, Common); rate 0.0625 kg/ha): 9.0; Preemergence herbicidal rating AMBEL (AMBEL (Ragweed, Common); rate 0.1250 kg/ha): 9.0; Preemergence herbicidal rating AMBEL (AMBEL (Ragweed, Common); rate 0.2500 kg/ha): 9.0; Herbicidal rating ORYSAT (ORYSAT (Rice, Tebonnet); rate 0.0156 kg/ha): 0.5; Herbicidal rating ORYSAT (ORYSAT (Rice, Tebonnet); rate 0.0313 kg/ha): 1.5; Herbicidal rating ORYSAT (ORYSAT (Rice, Tebonnet); rate 0.0625 kg/ha): 2.0; Preemergence herbicidal rating SETVI (SETVI (Foxtail, Green) [5]; rate 0.0156 kg/ha): 2.0; Preemergence herbicidal rating SETVI (SETVI (Foxtail, Green) [5]; rate 0.0313 kg/ha): 7.0; Preemergence herbicidal rating SETVI (SETVI (Foxtail, Green) [5]; rate 0.0625 kg/ha): 9.0; Preemergence herbicidal rating SETVI (SETVI (Foxtail, Green) [5]; rate 0.1250 kg/ha): 9.0; Preemergence herbicidal rating SETVI (SETVI (Foxtail, Green) [5]; rate 0.2500 kg/ha): 9.0; Herbicidal rating ABUTH (ABUTH (Velvetleaf); rate 0.0156 kg/ha): 9.0; Herbicidal rating ABUTH (ABUTH (Velvetleaf); rate 0.0313 kg/ha): 9.0; Herbicidal rating ABUTH (ABUTH (Velvetleaf); rate 0.0625 kg/ha): 9.0 |
| Cn1c(C(F)(F)F)cc(=O)n(-c2cc(N=C3SCC(=O)N3Cc3cc(Cl)cc(Cl)c3)c(Cl)cc2F)c1=O [Compound 150, 3-{4-Chloro-5-{[3-(3,5-dichlorobenzyl)-4-oxo-2-thiazolidinylidene]amino}-2-fluorophenyl}-1-methyl-6-(trifluoromethyl)-2,4(1H,3H)-pyrimidinedione] | 5.0 | 5.5 | 6.0 | 9.0 | 9.0 | 9.0 | 9.0 | 4.0 | 4.0 | 4.0 | 1.0 | 1.0 | 5.0 | 9.0 | 9.0 | 9.0 | 0.0 | 0.0 | 0.0 | 2.0 | Herbicidal rating TRZAWR ([4]; rate 0.0156 kg/ha): 3.5; Herbicidal rating TRZAWR ([4]; rate 0.0313 kg/ha): 3.5; Herbicidal rating TRZAWR ([4]; rate 0.0625 kg/ha): 3.5; Preemergence herbicidal rating AMBEL (AMBEL (Ragweed, Common); rate 0.0313 kg/ha): 0.0; Preemergence herbicidal rating AMBEL (AMBEL (Ragweed, Common); rate 0.0625 kg/ha): 0.0; Preemergence herbicidal rating AMBEL (AMBEL (Ragweed, Common); rate 0.1250 kg/ha): 3.0; Preemergence herbicidal rating AMBEL (AMBEL (Ragweed, Common); rate 0.2500 kg/ha): 7.0; Herbicidal rating ORYSAT (ORYSAT (Rice, Tebonnet); rate 0.0156 kg/ha): 2.0; Herbicidal rating ORYSAT (ORYSAT (Rice, Tebonnet); rate 0.0313 kg/ha): 2.5; Herbicidal rating ORYSAT (ORYSAT (Rice, Tebonnet); rate 0.0625 kg/ha): 3.0; Preemergence herbicidal rating SETVI (SETVI (Foxtail, Green) [5]; rate 0.0313 kg/ha): 0.0; Preemergence herbicidal rating SETVI (SETVI (Foxtail, Green) [5]; rate 0.0625 kg/ha): 0.0; Preemergence herbicidal rating SETVI (SETVI (Foxtail, Green) [5]; rate 0.1250 kg/ha): 4.0; Preemergence herbicidal rating SETVI (SETVI (Foxtail, Green) [5]; rate 0.2500 kg/ha): 9.0; Herbicidal rating ABUTH (ABUTH (Velvetleaf); rate 0.0156 kg/ha): 9.0; Herbicidal rating ABUTH (ABUTH (Velvetleaf); rate 0.0313 kg/ha): 9.0; Herbicidal rating ABUTH (ABUTH (Velvetleaf); rate 0.0625 kg/ha): 9.0 |
